Data as given in patent US12187713B2, “Immunomodulators, compositions and methods thereof” (Betta Pharmaceuticals Co., Ltd, priority 2019, dated 2025).

Legend:
[1] = biological target: PD-1/PD-L1 (Homo sapiens (Human), UniProt Q9NZQ7); experiment: PD-1/PD-L1 Binding Assay (Alphascreen)
Method in brief: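 PD-1/PD-L1 binding detected by anti-6×His acceptor and streptavidin donor beads after 120 min in the dark at 25 °C. Beforehand, the two proteins were incubated 15 min at 25 °C with inhibitor at 0.015–300 nM (1% DMSO). IC50 comes from a log concentration–response curve.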

[2] = Pharmacokinetic Assay, single oral dose 5 mg/kg (Table 12); type: in vivo; conditions: mouse, plasma concentration, C57 female mice, single oral dose 5 mg/kg
Description: Adult C57 female mice were received to single-dose of the test compounds with 15% DMSO, 10% Kolliphor^@HS 15 and 75% saline as excipients, the mice (n=3) were giving oral administration (intragastric administration) with the compounds at a dose of 5 mg/kg. Time of blood collection: 30 min, 2 h, 4 h. approximately 0.1 mL of whole blood was collected from retro-orbital venous plexus, and placed into tubes that contained K2-EDTA as an anticoagulant. The whole blood were centrifuged at 4° C. and 4000 rpm for 10 min. The plasma was transferred into centrifuge tubes, and stored at −20° C. until being analyzed. Concentrations of test compounds in the plasma samples were analyzed with liquid chromatography-tandem mass spectrometry (LC-MS/MS). Plasma concentration-time data of individual animals was analyzed using Microsoft Excel 2010.

Sequence of PD-1/PD-L1 (Q9NZQ7 19-238): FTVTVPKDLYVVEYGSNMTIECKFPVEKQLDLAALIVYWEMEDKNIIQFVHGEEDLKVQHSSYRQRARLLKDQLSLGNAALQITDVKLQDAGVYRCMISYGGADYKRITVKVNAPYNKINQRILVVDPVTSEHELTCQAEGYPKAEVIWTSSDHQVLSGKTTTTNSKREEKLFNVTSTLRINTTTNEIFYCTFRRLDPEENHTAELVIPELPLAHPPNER

Compound	IC50 ([1]; numeric values)	concentration at 0.5 h [2]	concentration at 2 h [2]	concentration at 4 h [2]	IC50 ([1]; range symbols)
Cc1c(-c2nc3cc(CN4CCC[C@H]4C(=O)O)c(OC(F)F)cc3o2)cccc1-c1cccc(-c2nc3cc(CN4CCCC4)c(F)c(F)c3o2)c1C [Example 102, ((2-(3′-(6,7-difluoro-5-(pyrrolidin-1-ylmethyl)benzo[d]oxazol-2-yl)-2,2′-dimethyl-[1,1′-biphenyl]-3-yl)-6-(difluoromethoxy)benzo[d]oxazol-5-yl)methyl)-L-proline]	18 nM	85.9 ng/mL	282 ng/mL	292 ng/mL	
Cc1c(-c2nc3cc(CN4CCC(F)C4)c(OC(F)F)cc3o2)cccc1-c1cccc(-c2nc3cc(CN4CCC[C@H]4C(=O)O)c(OC(F)F)cc3o2)c1C (stereo partly drawn) [Example 10, ((6-(difluoromethoxy)-2-(3′-(6-(difluoromethoxy)-5-((3-fluoropyrrolidin-1-yl)methyl)benzo[d]oxazol-2-yl)-2,2′-dimethyl-[1,1′-biphenyl]-3-yl)benzo[d]oxazol-5-yl)methyl)-L-proline]	19 nM	80.9 ng/mL	221 ng/mL	214 ng/mL	
Cc1c(-c2nc3cc(CN4CCC[C@H]4C(=O)O)c(OC(F)F)cc3o2)cccc1-c1cccc(-c2nc3cc(CN4CCC(C#N)C4)cc(C#N)c3o2)c1C (stereo partly drawn) [Example 142, ((2-(3′-(7-cyano-5-((3-cyanopyrrolidin-1-yl)methyl)benzo[d]oxazol-2-yl)-2,2′-dimethyl-[1,1′-biphenyl]-3-yl)-6-(difluoromethoxy)benzo[d]oxazol-5-yl)methyl)-L-proline]		211 ng/mL	243 ng/mL	171 ng/mL	0.1 to 5 nM
Cc1c(-c2nc3cc(CN4CCOCC4)c(OC(F)F)cc3o2)cccc1-c1cccc(-c2nc3cc(CN4CCC[C@H]4C(=O)O)c(OC(F)F)cc3o2)c1C [Example 13, ((6-(difluoromethoxy)-2-(3′-(6-(difluoromethoxy)-5-(morpholinomethyl)benzo[d]oxazol-2-yl)-2,2′-dimethyl-[1,1′-biphenyl]-3-yl)benzo[d]oxazol-5-yl)methyl)-L-proline]	26 nM	79.3 ng/mL	241 ng/mL	301 ng/mL	
COc1c(-c2nc3cc(CN4CCCC4)c(F)c(F)c3o2)cccc1-c1cccc(-c2nc3cc(CN4CCC[C@H]4C(=O)O)c(OC(F)F)cc3o2)c1C [Example 117, ((2-(3′-(6,7-difluoro-5-(pyrrolidin-1-ylmethyl)benzo[d]oxazol-2-yl)-2′-methoxy-2-methyl-[1,1′-biphenyl]-3-yl)-6-(difluoromethoxy)benzo[d]oxazol-5-yl)methyl)-L-proline]		121 ng/mL	319 ng/mL	243 ng/mL	0.1 to 5 nM
Cc1c(-c2nc3cc(CN4CC(C#N)C4)c(OC(F)F)cc3o2)cccc1-c1cccc(-c2nc3cc(CN4CCC[C@H]4C(=O)O)c(OC(F)F)cc3o2)c1C [Example 80, ((2-(3′-(5-((3-cyanoazetidin-1-yl)methyl)-6-(difluoromethoxy)benzo[d]oxazol-2-yl)-2,2′-dimethyl-[1,1′-biphenyl]-3-yl)-6-(difluoromethoxy)benzo[d]oxazol-5-yl)methyl)-L-proline]		247 ng/mL	299 ng/mL	167 ng/mL	5 to 50 nM

Continued, values first:

IC50 ([1]; numeric values)	concentration at 0.5 h [2]	concentration at 2 h [2]	concentration at 4 h [2]	IC50 ([1]; range symbols)	Compound
41 nM	143 ng/mL	322 ng/mL	296 ng/mL		Cc1c(-c2ccc(CN3CCCC3)c(C(F)(F)F)c2)cccc1-c1cccc(-c2nc3cc(CN4CCC[C@H]4C(=O)O)c(OC(F)F)cc3o2)c1C [Example 233, ((6-(difluoromethoxy)-2-(2,2′-dimethyl-4″- (pyrrolidin-1-ylmethyl)-3″-(trifluoromethyl)-[1,1′:3′,1″-terphenyl]-3-yl)benzo[d]oxazol-5-yl)methyl)-L-proline]
11 nM	6.68 ng/mL	10.8 ng/mL	3.57 ng/mL		Cc1c(-c2ccc3[nH]c(N)nc3c2)cccc1-c1cccc(-c2nc3cc(CN4CCC[C@H]4C(=O)O)c(OC(F)F)cc3o2)c1C [Example 293, ((2-(3′-(2-amino-1H-benzo[d]imidazol-5-yl)-2,2′-dimethyl-[1,1′-biphenyl]-3-yl)-6-(difluoromethoxy)benzo[d]oxazol-5-yl)methyl)-L-proline]
1.4 nM	21.4 ng/mL	54.9 ng/mL	19.2 ng/mL		Cc1c(COc2cc(OCc3cncc(OC(F)F)c3)c(CN3CCC(F)C3)cc2Cl)cccc1-c1cccc(-c2nc3cc(CN4CCC[C@H]4C(=O)O)c(OC(F)F)cc3o2)c1C (stereo partly drawn) [Example 209, ((2-(3′-((2-chloro-5-((5-(difluoromethoxy)pyridin-3-yl)methoxy)-4-((3-fluoropyrrolidin-1-yl)methyl)phenoxy)methyl)-2,2′-dimethyl-[1,1′-biphenyl]-3-yl)-6-(difluoromethoxy)benzo[d]oxazol-5-yl)methyl)-L-proline]
	90.4 ng/mL	223 ng/mL	202 ng/mL	0.1 to 5 nM	Cc1c(-c2ccc(CN3CCC(F)C3)cc2)cccc1-c1cccc(-c2nc3cc(CN4CCC[C@H]4C(=O)O)c(OC(F)F)cc3o2)c1C (stereo partly shown) [Example 242, ((6-(difluoromethoxy)-2-(4″-((3-fluoropyrrolidin-1-yl)methyl)-2,2′-dimethyl-[1,1′:3′,1″-terphenyl]-3-yl)benzo[d]oxazol-5-yl)methyl)proline]
	469 ng/mL	440 ng/mL	268 ng/mL	5 to 50 nM	Cc1c(-c2nc3c(o2)CCN(CC2CCO2)C3)cccc1-c1cccc(-c2nc3cc(CN4CCC[C@H]4C(=O)O)c(OC(F)F)cc3o2)c1C (stereo partly shown) [Example 192, ((6-(difluoromethoxy)-2-(2,2′-dimethyl-3′-(5-(oxetan-2-ylmethyl)-4,5,6,7-tetrahydrooxazolo[4,5-c]pyridin-2-yl)-[1,1′-biphenyl]-3-yl)benzo[d]oxazol-5-yl)methyl)proline]
	80.4 ng/mL	193 ng/mL	186 ng/mL	0.1 to 5 nM	COc1nc(-c2cccc(-c3cccc(-c4nc5cc(CN6CCC[C@H]6C(=O)O)c(OC(F)F)cc5o4)c3C)c2C)ccc1CN1CCC(C)(C)C1 [Example 294, ((6-(difluoromethoxy)-2-(3′-(5-((3,3-dimethylpyrrolidin-1-yl)methyl)-6-methoxypyridin-2-yl)-2,2′-dimethyl-[1,1′-biphenyl]-3-yl)benzo[d]oxazol-5-yl)methyl)-L-proline]
	674 ng/mL	1440 ng/mL	1100 ng/mL	> 50 nM	Cc1c(-c2nc3c(o2)CCN(CCC(F)(F)F)C3)cccc1-c1cccc(-c2nc3cc(CN4CCC[C@H]4C(=O)O)c(OC(F)F)cc3o2)c1C [Example 198, ((6-(difluoromethoxy)-2-(2,2′-dimethyl-3′-(5-(3,3,3-trifluoropropyl)-4,5,6,7-tetrahydrooxazolo[4,5-c]pyridin-2-yl)-[1,1′-biphenyl]-3-yl)benzo[d]oxazol-5-yl)methyl)proline]
